Assay results as given in US5773628A, “1,2-dioxetane compounds with haloalkoxy groups, methods preparation and use” (Tropix, Inc., priority 1994, dated 1998).
“Also recorded” adds a separate entry of the source.

What was measured:
[1] = Base-induced decomposition of hydroxy dioxetanes (first order decay of chemiluminescence); assay type: physicochemical; details: 37° C.; 0.2M 2-methyl-2-amino-1-propanol buffer pH 9.6, 0.88 mM Mg+2, 1.0 mg/mL Enhancer A
Method: (§1) Calf intestinal alkaline phosphatase (AP) was obtained from Biozyme (San Diego, Calif.). Other chemical reagents were obtained from Aldrich Chemical Co. (Milwaukee). Nuclear magnetic resonance (NMR) spectra were obtained on a Varian Gemini 300 spectrometer as solutions in D2 O or CDCl3. Chemiluminescence intensities and rate measurements were performed using either a Turner Designs (Sunnyvale, Calif.) model TD-20e luminometer, a Luminoskan luminometer (Helsinki, Finland), a charge-coupled device camera luminometer constructed in the inventors' laboratory or a luminometer constructed in the inventors' laboratory consisting of an electrically heated sample block, an optical fiber and associated optics for light collection and a photomultiplier tube. Temperature control of samples analyzed in the commercial luminometers was achieved by means of a circulating bath connected to the instrument. Quantitative measurement of light intensities on the Turner luminometer was extended beyond the 10^4 linear range of the detector by a neutral density filter. Data collection from each of the instruments was controlled by an Apple MacIntosh SE/30 computer using the LUMISOFT data reduction program (Lumigen).
The first order decay of chemiluminescence of dioxetanes 1 and 3 in 0.2M 2-methyl-2-amino-1-propanol buffer, pH 9.6 containing 0.88 mM Mg^+2 and 1.0 mg/mL of Enhancer A at 37° C. was measured in a luminometer. The half-life of decay of chemiluminescence (t1/2) of dioxetanes 1 and 3 in 0.2M 2-methyl-2-amino-1-propanol buffer, pH 9.6 containing 0.88 mM Mg^+2 and 1.0 mg/mL of Enhancer A correlate with the times required to reach the maximum light intensity (Imax) in the alkaline phosphatase-triggered decomposition of dioxetanes 2 and 5 in the same buffer solution. The half-life of decay of luminescence of the hydroxy dioxetane homologous to a phosphate-protected dioxetane, therefore, is useful for predicting the grow-in kinetics of light emission for phosphatase triggering of the corresponding phosphate dioxetane. In particular, hydroxy dioxetanes which show a faster t1/2 than dioxetane 1 indicate that the corresponding phosphate dioxetanes are expected to reach Imax more quickly. Other hydroxy dioxetanes (7-9) were then examined under the same conditions.

[2] = system: Calf intestinal alkaline phosphatase (AP); assay: Chemiluminescent detection of alkaline phosphatase on membrane; assay type: biochemical; details: 1 mg/mL Enhancer A, pH 9.6, 0.33 mM dioxetane, AP 1.1 fmol to 1.1 amol, X-ray film (FIG. 6)
Method: FIG. 6 is a digitally scanned image of an X-ray film from an experiment detecting alkaline phosphatase on a membrane with chemiluminescence. Solutions of alkaline phosphatase in water containing from 1.1×10^-15 to 1.1×10^-18 mol were applied to identical nylon membranes (Micron Separations Inc., Westboro, Mass). The membranes were air dried for 5 min and soaked briefly with a reagent containing 1 mg/mL of Enhancer A in 0.2M 2-amino-2-methyl-1-propanol buffer, pH 9.6 containing 0.88 mM MgCl and either 0.33 mM dioxetane 2 or 0.33 mM dioxetane 5. The membranes were placed between transparent plastic sheets and exposed to X-ray film (Kodak X-OMAT AR, Rochester, N.Y.).
Calf intestinal alkaline phosphatase (AP) was obtained from Biozyme (San Diego, Calif.). Other chemical reagents were obtained from Aldrich Chemical Co. (Milwaukee). Nuclear magnetic resonance (NMR) spectra were obtained on a Varian Gemini 300 spectrometer as solutions in D2 O or CDCl3. […] Temperature control of samples analyzed in the commercial luminometers was achieved by means of a circulating bath connected to the instrument. Quantitative measurement of light intensities on the Turner luminometer was extended beyond the 10^4 linear range of the detector by a neutral density filter. […]

[3] = system: Calf intestinal alkaline phosphatase (AP); assay: Kinetic profile of alkaline phosphatase-triggered chemiluminescence (time to 95% of maximum intensity); assay type: biochemical; details: for Time to Reach 95% of Maximum Light Intensity from Alkaline Phosphatase-Triggering: 37° C.
Method: as §1
The improvement in detection speed afforded by compositions containing the phosphate dioxetane 5 is shown in Table 2 through a comparison with dioxetane 2 of the times to reach 95% of the maximum chemiluminescence intensities produced by reaction with AP. Three different reagent compositions containing either dioxetane 2, 4-methoxy-4-(3-phosphoryloxy-phenyl)spiro[1,2-dioxetane-3,2'-tricyclo-[3.3.1.1^3,7 ]decane], disodium salt, (LUMIGEN PPD, Lumigen, Inc.) or 5 were reacted at 37° C. with AP. Composition A consists of 0.33 mM dioxetane in 0.2M 2-methyl-2-amino-1-propanol buffer (pH 9.6) containing 1.0 mg/mL 1-(tri-n-octylphosphoniummethyl)-4-(tri-n-butylphosphonium-methyl) benzene dichloride (Enhancer A); 100 μL portions were reacted with 3.36×10^-16 mol of enzyme. Composition B consists of 0.33 mM dioxetane in 0.2M 2-methyl-2-amino-1-propanol buffer (pH 9.6) containing 0.5 mg/mL of polyvinylbenzyl-tributylphosphon ium chloride co-polyvinylbenzyltrioctyl-phosphonium chloride (containing a 3:1 ratio of tributyl:trioctyl groups) the preparation of which is described in European Patent Application 561,033 published Sep. 22, 1993 (Enhancer B); 100 μL portions were reacted with 3.36×10^-16 mol of enzyme. Composition C consists of 0.33 mM dioxetane in 0.2M 2-methyl-2-amino-1-propanol buffer (pH 9.6); 500 μL portions were reacted with 1.12×10^-15 mol of enzyme.

[4] = system: Calf intestinal alkaline phosphatase (AP); assay: Effect of enhancer concentration on AP-induced chemiluminescence intensity and kinetics; comparison of optimized solutions; assay type: biochemical
Method: FIG. 1 is a graph showing the time profiles of the chemiluminescence intensity emitted by 100 μL of a reagent containing dioxetane 5 (4-(2,2,2-trifluoroethoxy)-4-(3-phosphoryloxyphenyl)spiro[1,2-dioxetane-3,2'-tricyclo-[3.3.1.1^3,7 ]decane] disodium salt) and various amounts of an enhancer triggered at 37° C. by addition of 1.12×10^-17 mol of alkaline phosphatase (AP). The reagent consists of a 0.33 mM solution of the dioxetane 5 in 0.2M 2-amino-2-methyl-1-propanol buffer, pH 9.6 containing 0.1, 0.25, 0.5 or 1 mg/mL of 1-(tri-n-octylphosphoniummethyl)-4-(tri-n-butyl-phosphoniummethyl)benzene dichloride (Enhancer A).
FIG. 2 is a graph showing a comparison of the time profile of the chemiluminescence intensity emitted by 100 μL of a reagent containing dioxetane 5 and various amounts of an enhancer triggered at 37° C. by addition of 1.12×10^-17 mol of AP. The reagents consist of a 0.33 mM solution of dioxetane 5 in 0.2M 2-amino-2-methyl-1-propanol buffer, pH 9.6 containing 0.01, 0.025, 0.1 or 0.5 mg/mL of polyvinylbenzyltributylphosphonium chloride co-polyvinylbenzyltri-octylphosphonium chloride (containing a 3:1 ratio of tributyl:trioctyl groups), Enhancer B, the preparation of which is described in European Patent Application 561,033 published Sep. 22, 1993.
FIG. 3 is a graph showing a comparison of the time profile of the chemiluminescence intensity emitted by 100 μL of enhanced reagents containing either dioxetane 2 (LUMIGEN PPD, Lumigen, Inc., Southfield, Mich.) or 5 triggered at 37° C. by addition of 1.12×10^-17 mol of AP. The reagents consist of 1) a 0.33 mM solution of dioxetane 2 in 0.2M 2-amino-2-methyl-1-propanol buffer, pH 9.6 containing 1.0 mg/mL of the enhancer 1-(tri-n-octylphosphoniummethyl)-4-(tri-n-butylphosphoniummethyl) benzene dichloride, and 2) a 0.33 mM solution of dioxetane 5 in 0.2M 2-amino-2-methyl-1-propanol buffer, pH 9.6 containing 0.1 mg/mL of the same enhancer.
FIG. 4 is a graph showing a comparison of the time profile of the chemiluminescence intensity emitted by 100 μL of another pair of enhanced reagents containing either dioxetane 2 or 5 triggered at 37° C. by addition of 1.12×10^-17 mol of AP. The reagents consist of 1) a 0.33 mM solution of dioxetane 2 in 0.2M 2-amino-2-methyl-1-propanol buffer, pH 9.6 containing 0.5 mg/mL of Enhancer B and 2) a 0.33 mM solution of dioxetane 5 in 0.2M 2-amino-2-methyl-1-propanol buffer, pH 9.6 containing 0.25 mg/mL of the same enhancer.
as §1
A concentration dependence study was conducted in an effort to find the optimum amount of enhancer A to use in the alkaline phosphatase-induced chemiluminescent reaction of dioxetane 5. Solutions of dioxetane 5 in 0.2M 2-methyl-2-amino-1-propanol buffer, pH 9.6 containing 0.88 mM Mg^+2 and 1, 0.5, 0.25 or 0.1 mg/mL of Enhancer A were prepared. […]

[5] = system: Calf intestinal alkaline phosphatase (AP); assay: Relative chemiluminescence quantum yields (total light after complete dephosphorylation by AP); assay type: biochemical
Method: as §1
The relative chemiluminescence quantum yields of dioxetanes 2 and 5 were determined in formulations containing 1 mg/mL or 0.1 mg/mL of Enhancer A in 0.2M 2-amino-2-methyl- 1-propanol buffer, pH 9.6 containing 0.88 mM Mg^+2. A 100 μL aliquot of each reagent was completely dephosphorylated by addition of 3.36×10^-13 mol of alkaline phosphatase. The total amount of light emitted in Relative Light Units (RLU) was integrated until light emission ceased. A similar comparison was also made with 500 μL portions of formulations without any enhancer using 0.75M 2-amino-2-methyl-1-propanol buffer, pH 9.6 containing 0.88 mM Mg^+2.

[6] = Composition A: 0.33 mM dioxetane, 0.2M 2-methyl-2-amino-1-propanol buffer pH 9.6, 1.0 mg/mL Enhancer A, 100 μL, 3.36×10^-16 mol AP
[7] = Composition B: 0.33 mM dioxetane, buffer pH 9.6, 0.5 mg/mL Enhancer B, 100 μL, 3.36×10^-16 mol AP
[8] = Composition C: 0.33 mM dioxetane, buffer pH 9.6, no enhancer, 500 μL, 1.12×10^-15 mol AP
[9] = Enhancer A 1 mg/mL, 100 μL, 0.2M buffer pH 9.6, 3.36×10^-13 mol AP
[10] = No enhancer, 500 μL, 0.75M 2-amino-2-methyl-1-propanol buffer pH 9.6, 0.88 mM Mg+2

| SMILES | t1/2 of decay of chemiluminescence [1] | Time to Reach 95% of Maximum Light Intensity from Alkaline Phosphatase-Triggering [3, 6] | Time to Reach 95% of Maximum Light Intensity from Alkaline Phosphatase-Triggering [3, 7] | Time to Reach 95% of Maximum Light Intensity from Alkaline Phosphatase-Triggering [3, 8] | Total Light Intensity [5, 9] | Total Light Intensity [5, 10] | also measured |
| --- | --- | --- | --- | --- | --- | --- | --- |
| Oc1cccc(C2(OCC(F)F)OOC23C2CC4CC(C2)CC3C4)c1 (stereo not drawn) [Dioxetane 7] | 2.8 min |  |  |  |  |  |  |
| COC1(c2cccc(O)c2)OOC12C1CC3CC(C1)CC2C3 (stereo not drawn) [Dioxetane 1] | 15.9 min |  |  |  |  |  |  |
| Oc1cccc(C2(OCCF)OOC23C2CC4CC(C2)CC3C4)c1 (stereo not drawn) [Dioxetane 8] | 6.1 min |  |  |  |  |  |  |
| O=P(O)(O)Oc1cccc(C2(OCC(F)(F)F)OOC23C2CC4CC(C2)CC3C4)c1 (stereo not drawn) [Dioxetane 5] |  | 6 min | 4.3 min | 4.5 min | 1.23 × 10^7 RLU | 9.65 × 10^4 RLU | Image intensity and detection sensitivity on nylon membrane compared to dioxetane 2 [2]: more intense images and better detection sensitivity; Plateau light intensity compared to dioxetane 2 ([3]; Composition A): higher plateau light intensity; Chemiluminescence intensity and time profile compared to dioxetane 2 (1 mg/mL Enhancer A) ([4]; 0.33 mM dioxetane 5 with 0.1 mg/mL Enhancer A, 37° C., 1.12×10^-17 mol AP (FIG. 3)): reaches a significantly higher maximum intensity and reaches a plateau much more rapidly; also recorded: more intense chemiluminescence under these conditions but also a shorter delay until the maximum intensity is reached; Chemiluminescence intensity and time profile compared to dioxetane 2 (0.5 mg/mL Enhancer B) ([4]; 0.33 mM dioxetane 5 with 0.25 mg/mL Enhancer B, 37° C., 1.12×10^-17 mol AP (FIG. 4)): reaches a higher light intensity in the first 15 minutes; also recorded: a higher light intensity within the first 15 min; Plateau light intensity and rise time vs. amount of Enhancer A ([4]; Enhancer A 1, 0.5, 0.25 or 0.1 mg/mL, pH 9.6, 37° C., 1.12×10^-17 mol AP (FIG. 1)): increasingly higher plateau light intensities and slower rise times as the amount of enhancer is reduced; Rise time vs. amount of Enhancer B ([4]; Enhancer B 0.5 to 0.01 mg/mL, pH 9.6, 37° C., 1.12×10^-17 mol AP (FIG. 2)): slower rise times as the amount of enhancer is reduced from 0.5 to 0.01 mg/mL; Total Light Intensity ([5]; Enhancer A 0.1 mg/mL, 100 μL, 0.2M buffer pH 9.6, 3.36×10^-13 mol AP): 1.01 × 10^7 RLU; Total light produced compared to dioxetane 2 ([5]; with or without Enhancer A): produces more light than dioxetane 2 |
| Oc1cccc(C2(OCC(F)(F)F)OOC23C2CC4CC(C2)CC3C4)c1 (stereo not drawn) [Dioxetane 3] | 2.0 min |  |  |  |  |  |  |
| COC1(c2cccc(OP(=O)(O)O)c2)OOC12C1CC3CC(C1)CC2C3 (stereo not drawn) [Dioxetane 2] |  | 32 min | 37 min | 6 min | 9.24 × 10^6 RLU | 4.41 × 10^4 RLU | Rise time to maximum light intensity ([4]; Enhancer B reduced from 3 mg/mL to 0.1 mg/mL): essentially constant at an hour or more; Rise time to maximum light intensity ([4]; all concentrations of Enhancer A from 0.1 mg/mL to 3 mg/mL): an hour or more |
